The data set can be described thus: activity coefficient (dimensionless); of the first substance listed, at infinite dilution; xn = mol fraction of the nth substance listed. The note with it: 101.33 kPa, Liquid, Chromatography, x1 = 0.

Numbers after ± are expanded uncertainties.

Among the data in the NIST ThermoML archive (doi:10.1016/j.fluid.2018.09.024) are activity coefficient values, retold here.

Consider `CC(C)CC(C)(C)C` [2,2,4-trimethylpentane] + CCCCCCCCCCCC[N+](C)(C)CCOc1ccccc1.O=S(=O)([N-]S(=O)(=O)C(F)(F)F)C(F)(F)F, for which the activity coefficient reads like this: (318.15 K) 3.66 ± 0.25; (328.15 K) 3.72 ± 0.25; (338.15 K) 3.77 ± 0.26; (348.15 K) 3.82 ± 0.26; (358.15 K) 3.86 ± 0.26; (368.15 K) 3.9 ± 0.27.

`CCC(C)(C)C` [2,2-dimethylbutane] + CCCCCCCCCCCC[N+](C)(C)CCOc1ccccc1.N#C[N-]C#N: the activity coefficient was found to be 5.84 ± 0.4 (328.15 K); 5.95 ± 0.41 (338.15 K); 6.05 ± 0.41 (348.15 K); 6.14 ± 0.42 (358.15 K); 6.25 ± 0.43 (368.15 K); 6.35 ± 0.43 (378.15 K).

For the molecule `CCC(C)(C)C` [2,2-dimethylbutane] + CCCCCCCCCCCC[N+](C)(C)CCOc1ccccc1.O=S(=O)([N-]S(=O)(=O)C(F)(F)F)C(F)(F)F, the activity coefficient reads like this: (318.15 K) 2.82 ± 0.19; (328.15 K) 2.91 ± 0.2; (338.15 K) 2.99 ± 0.2; (348.15 K) 3.07 ± 0.21; (358.15 K) 3.15 ± 0.21; (368.15 K) 3.24 ± 0.22.

For the molecule `CCOC(C)(C)C` [2-ethoxy-2-methylpropane] + CCCCCCCCCCCC[N+](C)(C)CCOc1ccccc1.N#C[N-]C#N, the activity coefficient runs as follows: (328.15 K) 3.66 ± 0.25; (338.15 K) 3.74 ± 0.25; (348.15 K) 3.82 ± 0.26; (358.15 K) 3.9 ± 0.27; (368.15 K) 3.97 ± 0.27; (378.15 K) 4.03 ± 0.27.

On to `CCOC(C)(C)C` [2-ethoxy-2-methylpropane] + CCCCCCCCCCCC[N+](C)(C)CCOc1ccccc1.O=S(=O)([N-]S(=O)(=O)C(F)(F)F)C(F)(F)F, for which the activity coefficient (318.15 K) came out at 1.8 ± 0.12; the activity coefficient (328.15 K) came to 1.87 ± 0.13; the activity coefficient (338.15 K) was 1.94 ± 0.13; the activity coefficient (348.15 K) was 2.01 ± 0.14; the activity coefficient (358.15 K) was determined as 2.09 ± 0.14; the activity coefficient (368.15 K) is 2.16 ± 0.15.

On to `CCC(C)(C)OC` [2-methoxy-2-methylbutane] + CCCCCCCCCCCC[N+](C)(C)CCOc1ccccc1.N#C[N-]C#N, for which the activity coefficient by setting is: (328.15 K) 2.49 ± 0.17; (338.15 K) 2.56 ± 0.17; (348.15 K) 2.63 ± 0.18; (358.15 K) 2.69 ± 0.18; (368.15 K) 2.75 ± 0.19; (378.15 K) 2.81 ± 0.19.

Take `CCC(C)(C)OC` [2-methoxy-2-methylbutane] + CCCCCCCCCCCC[N+](C)(C)CCOc1ccccc1.O=S(=O)([N-]S(=O)(=O)C(F)(F)F)C(F)(F)F: the activity coefficient (318.15 K) worked out at 1.22 ± 0.08; the activity coefficient (328.15 K) stood at 1.29 ± 0.08; the activity coefficient (338.15 K) amounted to 1.36 ± 0.09; the activity coefficient (348.15 K) is 1.43 ± 0.09; the activity coefficient (358.15 K) worked out at 1.5 ± 0.1; the activity coefficient (368.15 K) stood at 1.56 ± 0.1.

As for `COC(C)(C)C` [2-methoxy-2-methylpropane] + CCCCCCCCCCCC[N+](C)(C)CCOc1ccccc1.N#C[N-]C#N, the activity coefficient (328.15 K) was 2.28 ± 0.16; the activity coefficient (338.15 K) came out at 2.33 ± 0.16; the activity coefficient (348.15 K) turned out to be 2.38 ± 0.16; the activity coefficient (358.15 K) was 2.43 ± 0.17; the activity coefficient (368.15 K) was determined as 2.48 ± 0.17; the activity coefficient (378.15 K) came out at 2.53 ± 0.17.

For `COC(C)(C)C` [2-methoxy-2-methylpropane] + CCCCCCCCCCCC[N+](C)(C)CCOc1ccccc1.O=S(=O)([N-]S(=O)(=O)C(F)(F)F)C(F)(F)F, the activity coefficient is, setting by setting: (318.15 K) 1.03 ± 0.06; (328.15 K) 1.09 ± 0.07; (338.15 K) 1.15 ± 0.07; (348.15 K) 1.21 ± 0.08; (358.15 K) 1.27 ± 0.08; (368.15 K) 1.33 ± 0.09.

`CC(C)CO` [2-methyl-1-propanol] + CCCCCCCCCCCC[N+](C)(C)CCOc1ccccc1.N#C[N-]C#N: the activity coefficient runs as follows: (328.15 K) 0.451 ± 0.036; (338.15 K) 0.46 ± 0.036; (348.15 K) 0.469 ± 0.037; (358.15 K) 0.477 ± 0.037; (368.15 K) 0.486 ± 0.037; (378.15 K) 0.494 ± 0.038.

Take `CC(C)CO` [2-methyl-1-propanol] + CCCCCCCCCCCC[N+](C)(C)CCOc1ccccc1.O=S(=O)([N-]S(=O)(=O)C(F)(F)F)C(F)(F)F: the activity coefficient came out at 1.4 ± 0.09 (318.15 K); 1.33 ± 0.09 (328.15 K); 1.26 ± 0.08 (338.15 K); 1.21 ± 0.08 (348.15 K); 1.16 ± 0.07 (358.15 K); 1.12 ± 0.07 (368.15 K).

Turning to `CC(C)(C)O` [2-methylpropan-2-ol] + CCCCCCCCCCCC[N+](C)(C)CCOc1ccccc1.N#C[N-]C#N, the activity coefficient by setting is: (328.15 K) 0.539 ± 0.039; (338.15 K) 0.554 ± 0.04; (348.15 K) 0.569 ± 0.041; (358.15 K) 0.584 ± 0.041; (368.15 K) 0.598 ± 0.042; (378.15 K) 0.613 ± 0.043.

In the case of `CC(C)(C)O` [2-methylpropan-2-ol] + CCCCCCCCCCCC[N+](C)(C)CCOc1ccccc1.O=S(=O)([N-]S(=O)(=O)C(F)(F)F)C(F)(F)F, the activity coefficient was 1.14 ± 0.07 (318.15 K); 1.1 ± 0.07 (328.15 K); 1.06 ± 0.07 (338.15 K); 1.02 ± 0.06 (348.15 K); 0.986 ± 0.062 (358.15 K); 0.952 ± 0.06 (368.15 K).

Turning to `CCC(C)CC` [3-methylpentane] + CCCCCCCCCCCC[N+](C)(C)CCOc1ccccc1.N#C[N-]C#N, the activity coefficient is, setting by setting: (328.15 K) 5.3 ± 0.36; (338.15 K) 5.37 ± 0.37; (348.15 K) 5.41 ± 0.37; (358.15 K) 5.46 ± 0.37; (368.15 K) 5.5 ± 0.37; (378.15 K) 5.5 ± 0.37.

For `CCC(C)CC` [3-methylpentane] + CCCCCCCCCCCC[N+](C)(C)CCOc1ccccc1.O=S(=O)([N-]S(=O)(=O)C(F)(F)F)C(F)(F)F, the activity coefficient by setting is: (318.15 K) 2.74 ± 0.19; (328.15 K) 2.81 ± 0.19; (338.15 K) 2.88 ± 0.2; (348.15 K) 2.95 ± 0.2; (358.15 K) 3.01 ± 0.2; (368.15 K) 3.07 ± 0.21.

On to `C=C(C)c1ccccc1` [(1-methylethenyl)benzene] + CCCCCCCCCCCC[N+](C)(C)CCOc1ccccc1.N#C[N-]C#N, for which the activity coefficient is, setting by setting: (328.15 K) 1.11 ± 0.07; (338.15 K) 1.18 ± 0.08; (348.15 K) 1.25 ± 0.08; (358.15 K) 1.32 ± 0.09; (368.15 K) 1.39 ± 0.09; (378.15 K) 1.46 ± 0.1.

As to `C=C(C)c1ccccc1` [(1-methylethenyl)benzene] + CCCCCCCCCCCC[N+](C)(C)CCOc1ccccc1.O=S(=O)([N-]S(=O)(=O)C(F)(F)F)C(F)(F)F, the activity coefficient runs as follows: (318.15 K) 0.784 ± 0.051; (328.15 K) 0.831 ± 0.054; (338.15 K) 0.881 ± 0.056; (348.15 K) 0.931 ± 0.059; (358.15 K) 0.985 ± 0.062; (368.15 K) 1.03 ± 0.06.

In the case of `CC(C)=O` [acetone] + CCCCCCCCCCCC[N+](C)(C)CCOc1ccccc1.N#C[N-]C#N, the activity coefficient amounted to 0.721 ± 0.048 (328.15 K); 0.745 ± 0.049 (338.15 K); 0.767 ± 0.05 (348.15 K); 0.791 ± 0.051 (358.15 K); 0.813 ± 0.053 (368.15 K); 0.834 ± 0.054 (378.15 K).

Consider `CC(C)=O` [acetone] + CCCCCCCCCCCC[N+](C)(C)CCOc1ccccc1.O=S(=O)([N-]S(=O)(=O)C(F)(F)F)C(F)(F)F, for which the activity coefficient turned out to be 0.331 ± 0.032 (318.15 K); 0.353 ± 0.032 (328.15 K); 0.375 ± 0.033 (338.15 K); 0.398 ± 0.034 (348.15 K); 0.421 ± 0.035 (358.15 K); 0.445 ± 0.036 (368.15 K).

Regarding `CC#N` [acetonitrile] + CCCCCCCCCCCC[N+](C)(C)CCOc1ccccc1.N#C[N-]C#N, the activity coefficient (328.15 K) was 0.756 ± 0.05; the activity coefficient (338.15 K) was 0.766 ± 0.05; the activity coefficient (348.15 K) is 0.775 ± 0.051; the activity coefficient (358.15 K) was 0.785 ± 0.051; the activity coefficient (368.15 K) is 0.793 ± 0.052; the activity coefficient (378.15 K) was 0.801 ± 0.052.

On to `CC#N` [acetonitrile] + CCCCCCCCCCCC[N+](C)(C)CCOc1ccccc1.O=S(=O)([N-]S(=O)(=O)C(F)(F)F)C(F)(F)F, for which the activity coefficient is, setting by setting: (318.15 K) 0.473 ± 0.037; (328.15 K) 0.489 ± 0.037; (338.15 K) 0.506 ± 0.038; (348.15 K) 0.523 ± 0.039; (358.15 K) 0.539 ± 0.039; (368.15 K) 0.555 ± 0.04.

In the case of `c1ccccc1` [benzene] + CCCCCCCCCCCC[N+](C)(C)CCOc1ccccc1.N#C[N-]C#N, the activity coefficient by setting is: (328.15 K) 0.835 ± 0.054; (338.15 K) 0.87 ± 0.056; (348.15 K) 0.905 ± 0.057; (358.15 K) 0.938 ± 0.059; (368.15 K) 0.972 ± 0.061; (378.15 K) 1.01 ± 0.06.

As to `c1ccccc1` [benzene] + CCCCCCCCCCCC[N+](C)(C)CCOc1ccccc1.O=S(=O)([N-]S(=O)(=O)C(F)(F)F)C(F)(F)F, the activity coefficient is 0.569 ± 0.041 (318.15 K); 0.6 ± 0.042 (328.15 K); 0.629 ± 0.043 (338.15 K); 0.658 ± 0.045 (348.15 K); 0.687 ± 0.046 (358.15 K); 0.716 ± 0.048 (368.15 K).

With `CCCCO` [butan-1-ol] + CCCCCCCCCCCC[N+](C)(C)CCOc1ccccc1.N#C[N-]C#N, the activity coefficient is, setting by setting: (328.15 K) 0.463 ± 0.036; (338.15 K) 0.473 ± 0.037; (348.15 K) 0.483 ± 0.037; (358.15 K) 0.494 ± 0.038; (368.15 K) 0.504 ± 0.038; (378.15 K) 0.514 ± 0.038.
